These antisense oligonucleotides have a phosphorothioate backbone; sugars and methylation of C are not fully specified.
Columns and labels:
SMAD1 = conditions: ASO
PLA2G4A = conditions: ASO
Further: test concentration or dose not given here.

Sequence	remaining target (mRNA or protein) (fraction of control) (SMAD1)	remaining target (mRNA or protein) (fraction of control) (PLA2G4A)
AAAGATGAACTCCTTTTC	0.65	
AAATGACATGAGGCAGTC	0.54	
AAGGGCTTCCTGGGTCTG	0.53	
ACAGTAGTAGGATGAAAT	0.41	
ACATTCATAATGACAGCA	0.59	
AGCATTCCAGTGGTTTTA	0.31	
AGTGAGGAAACGGGTGGC	0.28	
AGTGGCGTTGAGTGGCAT	0.75	
ATGCAAAAGGACAGCAGA	0.57	
ATTGATCTGGTCGCGCTG	0.69	
CAGAAACGCCCAAAACTC		0.43
CAGATGAAATAGGATTAT	0.55	
CAGCCTGCCATCCAGAGA	0.46	
CATAAGCAACCGCCTGAA	0.57	
CATTTTAGCCCACTTTTC		≥ 1
CCAAATAAGTCGGGAGCC		0.09
CCAGTCAGCACCGGGTTG	0.8	
CCCACACGATTGTTGAGC	0.35	
CCCCACCTGAACCCAATA		≥ 1

Sequence	remaining target (mRNA or protein) (fraction of control) (SMAD1)	remaining target (mRNA or protein) (fraction of control) (PLA2G4A)
CCCCTTTGTCACTTTGGT		0.33
CCGCCCGCCTGCTTTCTC	0.12	
CCTCAGCTGCCAATACCC	0.47	
CCTCCACTCCTCAGCTGC	0.5	
CTCCTTCAGCCCTTCCCG		≥ 1
CTGAAGATCGGGCCAGCG	0.52	
CTTGTTCATTTTAGCCCA		≥ 1
GAAAAGAGGTAAAGGGCA		≥ 1
GAACCAGAAACGCCCAAA		≥ 1
GAGCCGCTCGGCCTCTCC	0.23	
GATGATGGTTGGGCAATC		≥ 1
GATGGTTGGGCAATCTTT		≥ 1
GCAGCTCAAGGCCTTTTC	0.58	
GCCCAAAACTCTGTTGAA		0
GCTGGACTTGTAAAGGAA	0.57	
GGTTGGGCAATCTTTCTC		≥ 1
GTAGGTGCTGCTGCTGCT	0.49	
GTCCAGAAGAGTAGAAAT	0.44	
GTGAACCAGAAACGCCCA		≥ 1

Sequence	remaining target (mRNA or protein) (fraction of control) (SMAD1)	remaining target (mRNA or protein) (fraction of control) (PLA2G4A)
GTTCATTTTAGCCCACTT		≥ 1
TAAATGTGAGCCCACTGT		≥ 1
TAACATTGGAGAGCAGCC	0.29	
TCCATGGTTCACAGACTG	0.2	
TCCTTCTGCTTGGAACCA	0.3	
TCGCCCTGTTTCCACCCA	0.1	
TCGGGAGCCATAAAAGTA		≥ 1
TGAAACCATCCACCAACA	0.3	
TGACTCATCCATCCTTCA	0.19	
TGAGATTCAAGCCCAGCA		0.41
TGAGCCCACTGTCCACTA		0.26
TGCCCCAGACACCCATTA		0.88
TGCTACTGTCACTAAGGC	0.12	
TGCTAGTAACATCCTGGC	0.25	
TGGATATGGTGAAATAAA	0.83	
TGTTTGTGTCCATCGGCT	0.47	
TTGTGAACCAGAAACGCC		0.08
TTTAGCCCACTTTTCTGC		0.07

— the OligoGym collection
